According to PMC5147771, “High-Resolution Genetics Identifies the Lipid Transfer Protein Sec14p as Target for Antifungal Ergolines” (PLoS Genetics, 2016):
Values after ≈ are worked out from the molar mass of the structure shown. Where two headings read alike, the source gives them in different places.

How the values were obtained:
[1] = tested on: FLU-sensitive (DSY4982) and FLU-resistant (BPY22 and BPY17) C. neoformans isolates; format: cell-based
[2] = tested on: FLU-resistant C. neoformans strain BPY22; experiment: microbe, parasite or virus in culture; format: cell-based; conditions: for MIC: Cryptococcus neoformans, 48 h

Row | SMILES | mechanism of inhibition (fungicidal vs fungistatic) [1] | MIC ([2]; read-out: MIC-0) [µg/mL] | MIC ([2]; read-out: MIC-2) [µg/mL] | activity against FLU-resistant strain (in words) [2]
1 | CN1C[C@H](C(=O)Nc2cccc(C(F)(F)F)c2)C[C@@H]2c3cccc4c3[C@H](C[C@H]21)CN4C(=O)OC(C)(C)C [NGx03] | fungicidal effect | 32 (≈ 62.1 µM) | 16 (≈ 31 µM) | 
2 | COC(=O)[C@@H]1C[C@@H]2c3cccc4c3[C@H](C[C@H]2N(C)C1)CN4C(=O)OCC(Cl)(Cl)Cl [NGx16] | fungicidal effect |  |  | weaker activity
3 | COC(=O)[C@@H]1C[C@@H]2c3c([N+](=O)[O-])ccc4c3[C@H](C[C@H]2N(C)C1)CN4C(=O)OCC(Cl)(Cl)Cl [NGx19] |  |  |  | weaker activity
